# Data taken from patent publication US20160060260A1, “BROMODOMAIN INHIBITORS FOR TREATING DISEASE” (Board of Regents, The University of Texas System, priority 2014, published 2016).
# pIC50: −log10 of the molar value.
# Biological target: T1, Recombinant human His-tagged Trim24-PHD-bromodomain (Homo sapiens, UniProt O15164)
# T1 construct: Recombinant human His-tagged Trim24-PHD-bromodomain (produced in-house); made in house
# T1 sequence (O15164 824-1006 limits assumed): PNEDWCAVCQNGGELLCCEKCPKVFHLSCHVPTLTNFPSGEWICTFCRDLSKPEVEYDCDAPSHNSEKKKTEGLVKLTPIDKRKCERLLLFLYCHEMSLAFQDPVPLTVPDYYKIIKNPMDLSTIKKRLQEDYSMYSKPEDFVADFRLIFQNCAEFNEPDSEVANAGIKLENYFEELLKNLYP
# Test: Trim24 AlphaScreen Assay
# Type: binding
# Conditions: 5 nM Trim24 protein, 15 nM biotinylated H3K23ac (1-33aa) peptide
# Summary of the method: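 His-tagged Trim24-PHD-bromodomain, biotinylated H3K23ac (1-33aa) peptide and compound incubated 1 h at room temperature in 50 mM Hepes pH 7.5, 100 mM NaCl, 0.12 mM Triton X-100.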
row,pIC50,Compound
1,7.00 to 8.00,"CCCOc1cc(OCCCOC)cc(Oc2cc3c(cc2NS(=O)(=O)c2cn(C(C)C)c(C)n2)n(C)c(=O)n3C)c1 [Example 139, 1-isopropyl-N-(6-(3-(3-methoxypropoxy)-5-propoxyphenoxy)-1,3-dimethyl-2-oxo-2,3-dihydro-1H-benzo[d]imidazol-5-yl)-2-methyl-1H-imidazole-4-sulfonamide]"
2,6.00 to 7.00,"Cc1ncc(S(=O)(=O)Nc2cc3c(cc2Oc2cccc(OCc4ccccc4)c2)n(C)c(=O)n3C)s1 [Example 47, N-(6-(3-(benzyloxy)phenoxy)-1,3-dimethyl-2-oxo-2,3-dihydro-1H-benzo[d]imidazol-5-yl)-2-methylthiazole-5-sulfonamide]"
3,6.00 to 7.00,"CCCOc1cccc(Oc2cc3c(cc2NS(=O)(=O)c2ccc(OC)cc2)n(C)c(=O)n3C)c1 [Example 171, N-(1,3-dimethyl-2-oxo-6-(3-propoxyphenoxy)-2,3-dihydro-1H-benzo[d]imidazol-5-yl)-4-methoxybenzenesulfonamide]"
4,< 6.00,"Cn1ccnc1S(=O)(=O)Nc1cc2c(cc1Oc1cccc(OCc3ccccc3)c1)n(C)c(=O)n2C [Example 80, N-(6-(3-(benzyloxy)phenoxy)-1,3-dimethyl-2-oxo-2,3-dihydro-1H-benzo[d]imidazol-5-yl)-1-methyl-1H-imidazole-2-sulfonamide]"
5,7.00 to 8.00,"CCCOc1cc(OCCCOC)cc(Oc2cc3c(cc2NS(=O)(=O)c2cccnc2)n(C)c(=O)n3C)c1 [Example 137, N-(6-(3-(3-methoxypropoxy)-5-propoxyphenoxy)-1,3-dimethyl-2-oxo-2,3-dihydro-1H-benzo[d]imidazol-5-yl)pyridine-3-sulfonamide]"
6,8.00 to 9.00,"CCCOc1cc(OCCCCCCN)cc(Oc2cc3c(cc2NS(=O)(=O)c2cnn(C)c2C)n(C)c(=O)n3C)c1 [Example 189, N-(6-(3-((6-aminohexyl)oxy)-5-propoxyphenoxy)-1,3-dimethyl-2-oxo-2,3-dihydro-1H-benzo[d]imidazol-5-yl)-1,5-dimethyl-1H-pyrazole-4-sulfonamide]"
7,7.00 to 8.00,"CCCOc1cc(OCCCCCCN)cc(Oc2cc3c(cc2NS(=O)(=O)c2ccccn2)n(C)c(=O)n3C)c1 [Example 187, N-(6-(3-((6-aminohexyl)oxy)-5-propoxyphenoxy)-1,3-dimethyl-2-oxo-2,3-dihydro-1H-benzo[d]imidazol-5-yl)pyridine-2-sulfonamide]"
8,7.00 to 8.00,"Cn1cnc(S(=O)(=O)Nc2cc3c(cc2Oc2cccc(OCC(F)(F)F)c2)n(C)c(=O)n3C)c1 [Example 71, N-(1,3-dimethyl-2-oxo-6-(3-(2,2,2-trifluoroethoxy)phenoxy)-2,3-dihydro-1H-benzo[d]imidazol-5-yl)-1-methyl-1H-imidazole-4-sulfonamide]"
9,7.00 to 8.00,"COCCCOc1cc(OCCCOC)cc(Oc2cc3c(cc2NS(=O)(=O)c2cn(C)c(C)n2)n(C)c(=O)n3C)c1 [Example 123, N-(6-(3,5-bis(3-methoxypropoxy)phenoxy)-1,3-dimethyl-2-oxo-2,3-dihydro-1H-benzo[d]imidazol-5-yl)-1,2-dimethyl-1H-imidazole-4-sulfonamide]"
10,6.00 to 7.00,"CCCOc1cc(OCCCCCCO)cc(Oc2cc3c(cc2NS(=O)(=O)c2cccc(C(=O)OC)c2)n(C)c(=O)n3C)c1 [Example 185, methyl 3-(N-(6-(3-((6-hydroxynhexyl)oxy)-5-propoxyphenoxy)-1,3-dimethyl-2-oxo-2,3-dihydro-1H-benzo[d]imidazol-5-yl)sulfamoyl)benzoate]"
11,6.00 to 7.00,"CCCOc1cccc(Oc2cc3c(cc2NS(=O)(=O)c2cccc(OC)c2)n(C)c(=O)n3C)c1 [Example 170, N-(1,3-dimethyl-2-oxo-6-(3-propoxyphenoxy)-2,3-dihydro-1H-benzo[d]imidazol-5-yl)-3-methoxybenzenesulfonamide]"
12,8.00 to 9.00,"CCCOc1cc(OCCCCCCN(C)C)cc(Oc2cc3c(cc2NS(=O)(=O)c2cnn(C)c2C)n(C)c(=O)n3C)c1 [Example 219, N-(6-(3-((6-(dimethylamino)hexyl)oxy)-5-propoxyphenoxy)-1,3-dimethyl-2-oxo-2,3-dihydro-1H-benzo[d]imidazol-5-yl)-1,5-dimethyl-1H-pyrazole-4-sulfonamide]"
13,7.00 to 8.00,"CCCOc1cc(OCCCOC)cc(Oc2cc3c(cc2NS(=O)(=O)c2cn(C(C)CC)cn2)n(C)c(=O)n3C)c1 (stereo not shown) [Example 148, 1-(sec-butyl)-N-(6-(3-(3-methoxypropoxy)-5-propoxyphenoxy)-1,3-dimethyl-2-oxo-2,3-dihydro-1H-benzo[d]imidazol-5-yl)-1H-imidazole-4-sulfonamide]"
14,7.00 to 8.00,"COc1ccc(S(=O)(=O)Nc2cc3c(cc2Oc2cccc(OCC4CC4)c2)n(C)c(=O)n3C)cc1OC [Example 127, N-(6-(3-(cyclopropylmethoxy)phenoxy)-1,3-dimethyl-2-oxo-2,3-dihydro-1H-benzo[d]imidazol-5-yl)-3,4-dimethoxybenzenesulfonamide]"
15,< 6.00,"Cn1cnc(S(=O)(=O)Nc2cc3c(cc2Oc2cccc(OCc4ccc(Cl)nc4)c2)n(C)c(=O)n3C)c1 [Example 3, N-(6-(3-((6-chloropyridin-3-yl)methoxy)phenoxy)-1,3-dimethyl-2-oxo-2,3-dihydro-1H-benzo[d]imidazol-5-yl)-1-methyl-1H-imidazole-4-sulfonamide]"
16,6.00 to 7.00,"Cn1c(=O)n(C)c2cc(Oc3cccc(OCC4CC4)c3)c(NS(=O)(=O)c3cn[nH]c3)cc21 [Example 132, N-(6-(3-(cyclopropylmethoxy)phenoxy)-1,3-dimethyl-2-oxo-2,3-dihydro-1H-benzo[d]imidazol-5-yl)-1H-pyrazole-4-sulfonamide]"
17,6.00 to 7.00,"Cn1cnc(S(=O)(=O)Nc2cc3c(cc2Oc2cccc(OCCCO)c2)n(C)c(=O)n3C)c1 [Example 240, N-(6-(3-(3-hydroxypropoxy)phenoxy)-1,3-dimethyl-2-oxo-2,3-dihydro-1H-benzo[d]imidazol-5-yl)-1-methyl-1H-imidazole-4-sulfonamide]"
18,6.00 to 7.00,"CCCOc1cccc(Oc2cc3c(cc2NS(=O)(=O)c2cc(OC)cc(OC)c2)n(C)c(=O)n3C)c1 [Example 169, N-(1,3-dimethyl-2-oxo-6-(3-propoxyphenoxy)-2,3-dihydro-1H-benzo[d]imidazol-5-yl)-3,5-dimethoxybenzenesulfonamide]"
19,7.00 to 8.00,"CCCOc1cccc(Oc2cc3c(cc2NS(=O)(=O)c2cccnc2)n(C)c(=O)n3C)c1 [Example 99, N-(1,3-dimethyl-2-oxo-6-(3-propoxyphenoxy)-2,3-dihydro-1H-benzo[d]imidazol-5-yl)pyridine-3-sulfonamide]"
20,7.00 to 8.00,"COCCCOc1cc(OCC(F)(F)F)cc(Oc2cc3c(cc2NS(=O)(=O)c2cnn(C)c2C)n(C)c(=O)n3C)c1 [Example 204, N-(6-(3-(3-methoxypropoxy)-5-(2,2,2-trifluoroethoxy)phenoxy)-1,3-dimethyl-2-oxo-2,3-dihydro-1H-benzo[d]imidazol-5-yl)-1,5-dimethyl-1H-pyrazole-4-sulfonamide]"
21,7.00 to 8.00,"CCCOc1cc(OCCCOC)cc(Oc2cc3c(cc2NS(=O)(=O)c2cnn(CC)c2)n(C)c(=O)n3C)c1 [Example 207, 1-ethyl-N-(6-(3-(3-methoxypropoxy)-5-propoxyphenoxy)-1,3-dimethyl-2-oxo-2,3-dihydro-1H-benzo[d]imidazol-5-yl)-1H-pyrazole-4-sulfonamide]"

row,Compound,pIC50
1,"CC(COC(=O)CNC(=O)OC(C)(C)C)COc1cccc(Oc2cc3c(cc2NS(=O)(=O)c2cn(C)cn2)n(C)c(=O)n3C)c1 (stereo not shown) [Example 239, 3-(3-{[1,3-dimethyl-6-(1-methyl-1H-imidazole-4-sulfonamido)-2-oxo-2,3-dihydro-1H-1,3-benzodiazol-5-yl]oxy}phenoxy)-2-methylpropyl 2-{[(tert-butoxy)carbonyl]amino}acetate]",6.00 to 7.00
2,"CC(C)COc1cc(F)cc(Oc2cc3c(cc2NS(=O)(=O)c2cn(C)cn2)n(C)c(=O)n3C)c1 [Example 224, N-(6-(3-fluoro-5-isobutoxyphenoxy)-1,3-dimethyl-2-oxo-2,3-dihydro-1H-benzo[d]imidazol-5-yl)-1-methyl-1H-imidazole-4-sulfonamide]",7.00 to 8.00
3,"CC(C)COc1cccc(Oc2cc3c(cc2NS(=O)(=O)C2CC2)n(C)c(=O)n3C)c1 [Example 59, N-(6-(3-isobutoxyphenoxy)-1,3-dimethyl-2-oxo-2,3-dihydro-1H-benzo[d]imidazol-5-yl)cyclopropanesulfonamide]",6.00 to 7.00
4,"CCCOc1cc(OCCCCN(C)C)cc(Oc2cc3c(cc2NS(=O)(=O)c2cccc(C(=O)O)c2)n(C)c(=O)n3C)c1 [Example 253, 3-(N-(6-(3-(4-(dimethylamino)butoxy)-5-propoxyphenoxy)-1,3-dimethyl-2-oxo-2,3-dihydro-1H-benzo[d]imidazol-5-yl)sulfamoyl)benzoic acid]",7.00 to 8.00
5,"CCCOc1ccc(F)c(Oc2cc3c(cc2NS(=O)(=O)c2cn(C)c(C)n2)n(C)c(=O)n3C)c1 [Example 133, N-(6-(2-fluoro-5-propoxyphenoxy)-1,3-dimethyl-2-oxo-2,3-ddihydro-1H-benzo[d]imidazol-5-yl)-1,2-dimethyl-1H-imidazole-4-sulfonamide]",6.00 to 7.00
6,"CCCOc1cc(OCCCCN)cc(Oc2cc3c(cc2NS(=O)(=O)c2cnn(C)c2C)n(C)c(=O)n3C)c1 [Example 199, N-(6-(3-(4-aminobutoxy)-5-propoxyphenoxy)-1,3-dimethyl-2-oxo-2,3-dihydro-1H-benzo[d]imidazol-5-yl)-1,5-dimethyl-1H-pyrazole-4-sulfonamide]",7.00 to 8.00
7,"CCCOc1cc(OCCCCN)cc(Oc2cc3c(cc2NS(=O)(=O)c2cccc(C(=O)OC)c2)n(C)c(=O)n3C)c1 [Example 252, Methyl 3-({6-[3-(4-aminobutoxy)-5-propoxyphenoxy]-1,3-dimethyl-2-oxo-2,3-dihydro-1H-1,3-benzodiazol-5-yl}sulfamoyl)benzoate]",7.00 to 8.00
